According to patent US20020193425A1, “Cancer chemopreventative compounds and compositions and methods of treating cancers” (priority 2001, published 2002):
Read-outs that look alike come from different tables or passages of the source.

Experiments:
c-myc mRNA, HL-60 = assay: c-myc mRNA levels, real time RT-PCR; assay type: cell-based, human
Method: RNA was extracted from 10^6 cells using TRIZOL® Reagent (Life Technologies). Following isopropanol precipitation, the pellet was washed in 75% aqueous ethanol and the RNA was dissolved in […] of diethyl pyrocarbonate (DEPC)-treated distilled water. Subsequently, the samples were stored at −80° C. RNA quantitation was performed by UV measurement at 260 nm. The cDNA synthesis was performed in a total volume of […], containing 1×TaqManÒ RT buffer, 5.5 mM MgCl2, 2 mM dNTPs mixture, 2.5 mM random hexamers, 4 U RNase inhibitor, 12.5 U MultiScriber RT (Perkin Elmer/Applied Biosystems) and […] of RNA. The reaction was performed for 10 min at 25° C., followed by 48° C. for 30 min and a 5 min incubation step at 95° C. After the reaction, […] of DEPC-treated distilled water was added to each sample and […] was used for each PCR.
The PCR and subsequent analyses were performed in the GeneAmp 5700 Sequence Detection System (Applied Biosystems). Real-time quantitation was performed using the TaqMan technology of Applied Biosystems (Foster City, Calif., USA). c-Myc primers and probe sequences (5′ to 3′) were as follows: […], […] and […] (Applied Biosystems).
PCR reactions were performed in triplicate. The PCR reaction mixture contained 300 nM of both primers, 150 nM TaqMan probe, and 1×TaqMan Universal Master Mix (Applied Biosystems). The reactions first were incubated at 50° C. for 2 min, followed by 10 min at 95° C. The PCR itself consisted of 40 cycles with 15 s at 95° C. and 1 min at 60° C. each. The fluorescence signal was measured during the last 30 s of the annealing/extension phase. After the PCR, a fluorescence threshold value was set and threshold cycle (Ct) values were determined, i.e., the fractional cycle at which the fluorescence signal reached this threshold. These values were used for further calculations.
β-Actin (TaqMan PDAR control, Applied Biosystems) was used as an endogenous reference to correct for any differences in the amount of total RNA used for a reaction and to compensate for different levels of inhibition during reverse transcription of RNA into cDNA. c-Myc and β-actin expression were related to a standard curve derived from a serial dilution of K562 cDNA with dH2O. Also, c-Myc and β-actin quantities were expressed in terms of ng of K562 RNA yielding the same level of expression. Subsequently, normalization was achieved by dividing the expression level of c-Myc by the β-actin expression level. Finally, results were expressed as a percentage, where the level of c-Myc observed in the DMSO-treated samples was considered as 100%.
Cells were treated with brusatol (25 ng/ml) or bruceantin (10 ng/ml) for 4 or 24 h and then analyzed for c-myc and β-actin mRNA using real time RT-PCR. Results are shown as percentage of c-myc mRNA expression of control (0.1%, v/v, DMSO) values. Results are the mean of triplicate samples (±standard deviation). c-Myc mRNA values were normalized relative to β-actin.

[1] = system: HL-60 (human promyelocytic) cells; assay: HL-60 cell differentiation of quassinoids, NBT reduction; assay type: cell-based; conditions: Homo sapiens, HL-60, 96 h, read-out: induction of differentiation (EC50, μM)
Method: (§1) Induction of differentiation was determined by the ability of treated cells to produce superoxide anions (nitroblue tetrazolium (NBT)-reduction), a functional marker of mature macrophages or granulocytes. Proliferation capacity is equivalent to cell growth and was measured by incorporation of [3H]thymidine into DNA over a period of 18 h, and cytotoxic activity was evaluated by the loss of membrane integrity as shown by trypan blue exclusion. […] Although members of the brusatol and glaucarubolone series were active, when comparing members of both series that varied only in the positioning of the epoxymethano bridge, great differences were noted, as shown with yadianzolide C (5) and glaucarubolone (24), and analogues 4 (brusatol series) and 32 (glaucarubolone series).
(§2) HL-60 (human promyelocytic) cells were tested using a 4-day incubation protocol. In brief, cells in log phase (approximately 10^6 cells/mL) were diluted to […] and preincubated overnight (18 h) in 24-well plates to allow cell-growth recovery. Then, samples dissolved in DMSO were added, keeping the final DMSO concentration at 0.1% (v/v). Control cultures were treated with the same concentration of DMSO. After 4 days of incubation, the cells were analyzed to determine the percentage of cells undergoing maturation as determined by NBT reduction. Concomitantly, the effect on viability and proliferation of HL-60 cells was determined. In each experiment, 1α, 25-dihydroxyvitamin D3 (EC50=0.01 μM) and brusatol (EC50=0.07 μM) were used as reference controls. EC50 and IC50 values were calculated using 5-7 test concentrations (in duplicate), and consistent results were obtained, indicating the data reported for the related quassinoids are reliable.
(1) Nitroblue Tetrazolium (NBT) Reduction. Evaluation of NBT reduction was used to assess the ability of sample-treated HL-60 cells to produce superoxide when challenged with 12-O-tetradecanoylphorbol 13-acetate (TPA). A 1:1 v/v) mixture of a cell suspension (10^6 cells) and TPA/NBT solution (2 mg/mL NBT and 1 μg/mL TPA in phosphate buffered solution) was incubated for 1 h at 37° C. Positive cells reduce NBT yielding intracellular black-blue formazan deposits, which were quantified by microscopic examination of >200 cells. Results were expressed as a percentage of positive cells.

[2] = HL-60 cytotoxicity of quassinoids, trypan blue exclusion; assay type: cell-based, human; conditions: human
Method: as §1, §2
(2) Cytotoxicity. Since loss of membrane integrity is an early feature of necrotic cells and a late feature of apoptotic cells, trypan blue, a […] blue dye, was used to stain cells with compromised plasma membranes, while leaving intact cells unstained. Cells […] of trypan blue (0.2% w/v in PBS), incubated for at least 5 min at room temperature, and counted using a hematocytometer. Viability percentages were calculated with duplicate samples.

## COC(=O)[C@@]12OC[C@]34[C@H]([C@@H](O)[C@@H]1O)[C@@]1(C)CC(=O)C(O)=C(C)[C@@H]1C[C@H]3OC(=O)[C@H](OC(=O)C=C(C)C)[C@@H]24 [compound 1, brusatol]
c-myc mRNA, HL-60; 4 h treatment
  decrease in c-Myc mRNA levels: about 50%
c-myc mRNA, HL-60; Brusatol (25 ng/ml), 4 h
  c-myc mRNA expression, percentage of control: 54 ± 2 %
c-myc mRNA, HL-60; Brusatol (25 ng/ml), 24 h
  c-myc mRNA expression, percentage of control: 11 ± 2 %
[1]
  EC50: 0.07 µM
[2]; HL-60 cells, HL-60, 4-day incubation, trypan blue exclusion, read-out: cytotoxicity (IC50)
  IC50 at 4 days: 170 ± 1 nM

## COC(=O)[C@@]12OC[C@]34[C@H]([C@@H](O)[C@@H]1O)[C@@]1(C)CC(=O)C(O)=C(C)[C@@H]1C[C@H]3OC(=O)[C@H](OC(=O)/C=C(\C)C(C)C)[C@@H]24 [compound 2, bruceantin]
c-myc mRNA, HL-60; Bruceantin (10 ng/ml), 4 h
  c-myc mRNA expression, percentage of control: 76 ± 9 %
c-myc mRNA, HL-60; Bruceantin (10 ng/ml), 24 h
  c-myc mRNA expression, percentage of control: 16 ± 0 %
[1]
  EC50: 0.02 ± 0.002 µM
[2]
  IC50 at 4 days: 40 ± 3 nM
